The assay deals with primary human monocytes. Briefly: Immunomodulation in human monocytes: cytokine/PGE2 release measured by ELISA after 24 h incubation. The assay is classed as cell-based. Particulars: up to the highest concentration studied (0.68 μg/mL and 0.59 μg/mL respectively). How it is done:
Monocyte cell cultures: Primary human monocytes were prepared from the buffy coat of healthy human blood donors using a standardized procedure.
Cells were seeded in 24-well plates at a density of 2200000 cells/well for ELISA measurements. Monocytes were incubated with test elements (5 different concentrations) for 24 h. LPS (10 ng/mL, Salmonella typhimurium SL1181) served as a positive control for cytokine release. After 24 h, supernatants were removed, centrifuged and studied for IL-1β, MCP-1, IL-6, TNF and IL-8 concentrations by ELISA using the manufacturer's protocol (n=6, 3 different donors).
`C=C1CC[C@H](O)C/C1=C/C=C1\CCC[C@]2(C)[C@@H]([C@H](C)CCCC(C)C)CC[C@@H]12` [vitamin D3, cholecalciferol]: the “effect on basal cytokine release in human monocytes” value (from here on “effect on basal cytokine release”) is “Neither selenium, vitamin B6 nor vitamin D3 had any effect”.

Consider `Cc1ncc(CO)c(CO)c1O.Cl` [vitamin B6], for which the “effect on basal cytokine release” value is reported as “Neither selenium, vitamin B6 nor vitamin D3 had any effect”.

`[Se]` [selenium]: the “effect on basal cytokine release” value was “Neither selenium, vitamin B6 nor vitamin D3 had any effect”.

Source of the values: patent US20240165174A1, “[…]-BASED COMPOSITION AND USES THEREOF FOR R[…]” (priority 2021, published 2024).
